What was measured:
[1] = rate of dissolution in H2O at 25° C.; assay type: physicochemical; settings: for Rate of dissolution in H2O at 25° C.: time: time for the amount printed in the same cell (see E2); for Rate of dissolution in H2O at 25° C.: amount dissolved: within the time printed in the same cell (see E3)
[2] = moisture content (Karl Fischer analysis); assay type: physicochemical
Protocol: Karl-Fischer analysis also was performed on the stevioside compositions obtained hereinbelow to determine the water content using a Mettler Toledo DL39 Karl Fischer titrator. Approximately 11-56 mg of sample were dissolved in approximately 3.5-3.7 g of dry Hydranal-Coulmat AD. Approximately 0.9-1.0 g of the resulting solution was placed in the KF titration vessel containing Hydranal-Coulomat AD and mixed for 10 seconds to ensure dissolution. The sample was titrated by means of a generator electrode which produces iodine by electrochemical oxidation: 2 I^−→I2+2e. The experiments were repeated in triplicate to ensure reproducibility.

[3] = room temperature; from U.S. Pat. No. 4,082,858; cited from earlier work

Compound	Rate of dissolution in H2O at 25° C.: time [1] [min]	Rate of dissolution in H2O at 25° C.: amount dissolved [1] [% in]	Moisture content [2] [%]	rate of dissolution as compared to the polymorph forms of stevioside ([1]; in words)	water solubility [3]
C=C1C[C@@]23CC[C@H]4[C@@](C)(CCC[C@@]4(C)C(=O)O[C@@H]4O[C@H](CO)[C@@H](O)[C@H](O)[C@H]4O)[C@@H]2CC[C@]1(O[C@@H]1O[C@H](CO)[C@@H](O)[C@H](O)[C@H]1O[C@@H]1O[C@H](CO)[C@@H](O)[C@H](O)[C@H]1O)C3 [Form 1, stevioside]	30	<0.075	>5	–	–
C=C1C[C@@]23CC[C@H]4[C@@](C)(CCC[C@@]4(C)C(=O)O[C@@H]4O[C@H](CO)[C@@H](O)[C@H](O)[C@H]4O)[C@@H]2CC[C@]1(O[C@@H]1O[C@H](CO)[C@@H](O)[C@H](O)[C@H]1O[C@@H]1O[C@H](CO)[C@@H](O)[C@H](O)[C@H]1O)C3 [stevioside, Stevioside]	–	–	–	–	approximately 1.25 g/L

Now from value to compound, other results behind:

Rate of dissolution in H2O at 25° C.: time [1] [min]	Rate of dissolution in H2O at 25° C.: amount dissolved [1] [% in]	Moisture content [2] [%]	rate of dissolution as compared to the polymorph forms of stevioside ([1]; in words)	Compound	water solubility [3]
2	<0.6	<3	–	C=C1C[C@@]23CC[C@H]4[C@@](C)(CCC[C@@]4(C)C(=O)O[C@@H]4O[C@H](CO)[C@@H](O)[C@H](O)[C@H]4O)[C@@H]2CC[C@]1(O[C@@H]1O[C@H](CO)[C@@H](O)[C@H](O)[C@H]1O[C@@H]1O[C@H](CO)[C@@H](O)[C@H](O)[C@H]1O)C3 [Form 2 A, stevioside]	–
<1.0	10.0	<4	–	C=C1C[C@@]23CC[C@H]4[C@@](C)(CCC[C@@]4(C)C(=O)O[C@@H]4O[C@H](CO)[C@@H](O)[C@H](O)[C@H]4O)[C@@H]2CC[C@]1(O[C@@H]1O[C@H](CO)[C@@H](O)[C@H](O)[C@H]1O[C@@H]1O[C@H](CO)[C@@H](O)[C@H](O)[C@H]1O)C3 [Form 2B, stevioside]	–
<1.0	40.0	~3	improved rate of dissolution	C=C1C[C@@]23CC[C@H]4[C@@](C)(CCC[C@@]4(C)C(=O)O[C@@H]4O[C@H](CO)[C@@H](O)[C@H](O)[C@H]4O)[C@@H]2CC[C@]1(O[C@@H]1O[C@H](CO)[C@@H](O)[C@H](O)[C@H]1O[C@@H]1O[C@H](CO)[C@@H](O)[C@H](O)[C@H]1O)C3 [Form 4, stevioside]	–

Reference: patent publication US8030481B2, “Stevioside polymorphic and amorphous forms, methods for their formulation, and uses” (The Coca-Cola Company, priority 2007, dated 2011)
